The values below come from patent US6472397B1, “Nitrogen-containing heterocyclic compounds having antiplatelet aggregation effect and medicinal use thereof” (Meiji Seika Kaisha, Ltd., priority 1998, dated 2002).

SMILES strings stand for the structures.

In data set [1] the test system is human PRP (platelet rich plasma). As to the kind of experiment: Platelet aggregation inhibiting effect, ADP-induced, human PRP. It counts as cell-based. The note with it: ADP final concentration 5 μM, preincubation 2 minutes, read-out: IC50 calculated from the aggregation rate. How it is done:
Among the compounds represented by the general formula (I) according to the present invention, the platelet aggregation inhibiting effect of the above compound A was examined with human PRP (platelet rich plasma).
A 9 volume sample of blood was taken out through an injection syringe having 1 volume of 3.8% sodium citrate added thereto from the vein of normal human (male), centrifuged at 170×g for 10 minutes at room temperature, and the resulting supernatant was isolated as PRP. The residual blood from which PRP had been isolated was centrifuged at 2,700×g for 15 minutes, and the resulting supernatant was isolated as platelet poor plasma (PPP).
The platelet aggregation test was carried out with AGGRIGOMETER (PAM-8C) manufactured by MEBANICS. The substance to be tested is dissolved in 50% DMSO-physiological saline, 50% methanol-physiological saline, or a physiological saline. The preincubation time of the substance to be tested and PRP was set as 2 minutes. An aggregation driving agent ADP (CHRONO-PARREAGENTS384 ADP, CHRONO-LOG Corp.) was diluted with physiological saline so that the final concentration is 5 μM.
The platelet aggregation inhibiting activity was calculated from the following equation as the suppressive rate against the […] by ADP when no compound to be tested was added:
Platelet aggregation inhibiting activity (%)= [formula]

Data set [2] is described as follows: Oral administration test: bioavailability in rats. It counts as in vivo. The note with it: result in words. How it is done:
1) Preparation of a Solution to be Administered
The compound was dissolved or suspended in either of the solvents in which the compound is preferably dispersed or dissolved including distilled water, CMC-Na, Tween 80, and HCO 60 to prepare the liquids for intravenous injection and oral administration. The liquids for intravenous injection and oral administration have a concentration of 0.3 mg/ml and 5 mg/ml, respectively. The concentrations of the compounds were determined by HPLC.
Rats having fasted for 16-20 hours were subjected to cannulation with a polyethylene tube (PE50) into femoral artery. […] The plasma samples were treated according to the method described below, and the activity substance was then measured by HPLC. […]
Among the observed values after administration, the observed values corresponding to the maximum plasma concentration (Cmax) and the time for reaching the maximum plasma concentration (Tmax) were confirmed. […] The area below the plasma concentration-time curve from 0 to infinity (AUCinfinite) was calculated by the trapezoidal method until the final observed value, and after the final observed value from the final observed value/kel as the sum of respective values. […]
Bioavailability (B.A. (%)) was calculated from the following equation: […]

With `O=C(O)COc1ccc(C(=O)CN2CCN(C3CCNCC3)CC2=O)cc1` [Compound A], the IC50 in data set [1] is 42 nM.
With `CCOC(=O)COc1ccc(C(=O)CNC(=O)c2cc3c(s2)CCN(C(=O)OC(C)OC(C)=O)C3)cc1OCC(=O)OCC` (centres unmarked) [Compound B, Diethyl [[4-[[[[5-(1-Acetoxyethyl)oxycarbonyl-4,5,6,7-tetrahydrothieno[3,2-c]pyridin-2-yl]carbonyl]amino]-acetyl]-o-phenylene]dioxy]diacetate], the “absorption capacity via oral administration” value in data set [2] is recorded as “no high absorption capacity”.
